# Results as given in patent US20250262197A1, “COMPOUNDS AND METHODS FOR TREATING CHEMOTHERAPY-INDUCED PAIN” (priority 2024, published 2025).
# Where two headings read alike, the source gives them in different places.
# What was measured:
# [1] = tested on: oxaliplatin-induced peripheral neuropathy (cold allodynia); assay: Repeated daily oral administration in rat model of oxaliplatin-induced peripheral neuropathy, cold allodynia, paw immersion test; format: in vivo, male Sprague-Dawley rats
# Experimental: Cold allodynia is measured using the cryothermostat. See Singh, V. P., Kulkarni, S. K., “Effect of licofelone against mechanical hyperalgesia and cold allodynia in the rat model of incisional pain” Pharmacological Reports 2005(57):380-384.
# Cold allodynia was measured using the paw immersion test. See Singh, supra. In this test, the latency of hindpaw withdrawal was measured after immersion of the hindpaw in the cryothermostat with a temperature fixed at 10° C. (±0.5° C.).
# Duloxetine was used as a reference to validate the assay.
# On D-3, latency of hindpaw withdrawal was measured on both paws using the cryothermostat to obtain a pre-induction and pre-treatment baseline. […] The first administration of vehicle and Compound A (groups 1 to 4) was done on D-3, then vehicle and Compound A were daily orally administered until D18 (n=22 repeated treatments). […] On the testing days (D4, D11, and D18), latency of hindpaw withdrawal was measured on both paws using the cryothermostat to obtain a baseline. Duloxetine was then orally administered at the same time as vehicle and Compound A at time T0. Sixty minutes later, the latency of hindpaw withdrawal was measured.
# Vehicle (10% Ethanol/40% PEG 400/15% Tween 80 in sterile water) and Compound A were orally administered at 3 ml/kg. Duloxetine was orally administered at 10 ml/kg. Dosing and testing were performed in a random order by a blinded experimenter with the exception of sham animals and the duloxetine-treated group. Doses are expressed in terms of free active substance.
# On D-3, the latency of hindpaw withdrawal was measured on both paws using the cryothermostat to obtain preinduction and pretreatment baselines.
# The first administration of vehicle and Compound A (group 1 to 4) was done on D-3 then vehicle and Compound A were daily orally administered until D18 (n=22 repeated treatments).
# On the testing days (D4, D11 and D18), latency of hindpaw withdrawal was measured on both paws using the cryothermostat (baseline) then duloxetine was orally administered at the same time than vehicle and Compound A (T0) and 60 minutes later, the latency of hindpaw withdrawal was measured.
# Results were expressed as: 1) the paw withdrawal latency (mean±s.e.m.) in seconds for each group, calculated from individual paw withdrawal latency; and 2) the percentage of variation of the paw withdrawal latency calculated from the mean value of the vehicle-treated group. To determine a statistical effect of the test substance and the reference substance, data were analyzed by a non-parametrical test. The significance level was p<0.05.
# [2] = tested on: oxaliplatin-induced peripheral neuropathy (cold allodynia); assay: Single oral administration in rat model of oxaliplatin-induced peripheral neuropathy, cold allodynia, paw immersion test; format: in vivo, male Sprague-Dawley rats; details: for percentage of variation of the paw withdrawal latency as compared to the vehicle-treated group: p<0.05
# Experimental: Cold allodynia is measured using the cryothermostat. See […]., “Effect of licofelone against mechanical hyperalgesia and cold allodynia in the rat model of incisional pain” Pharmacological Reports 2005(57):380-384. […] Cheng, X., et al., “Herbal Medicine AC591 Prevents oxaliplatin-Induced Peripheral Neuropathy in Animal Model and Cancer Patients” Frontiers in Pharmacology, 2017(8):344. This model is useful to evaluate the analgesic effects of new compounds on oxaliplatin-induced chronic painful symptoms. Cold allodynia was measured using the paw immersion test. See Singh, supra. In this test, the latency of hindpaw withdrawal was measured after immersion of the hindpaw in the cryothermostat with a temperature fixed at 10° C. (±0.5° C.). […] On day zero (D0), latency of hindpaw withdrawal was measured on both paws using the cryothermostat (Baseline pre-induction). […] Sixty minutes later, the latency of hindpaw withdrawal was measured on both paws using the cryothermostat. […] Doses are expressed in terms of free active substance. […] On D0, latency of hindpaw withdrawal was measured on both paws using the cryothermostat to obtain a preinduction baseline preinduction. […] Sixty minutes later, the latency of hindpaw withdrawal was measured on both paws using the cryothermostat. […] Rats were sacrificed at the end of the experiment by CO2 inhalation pending subsequent removal by a certified company. Results were expressed as: 1) the paw withdrawal latency (mean±s.e.m.) in seconds for each group, calculated from individual paw withdrawal latency; and 2) the percentage of variation of the paw withdrawal latency calculated from the mean value of the vehicle-treated group. To determine a statistical effect of the test substance and the reference substance, data were analyzed by a non-parametrical test. The significance level was p<0.05.
# [3] = tested on: patients receiving oxaliplatin; details: cited from earlier work
smiles,measurement,setting,value
CNCC[C@H](Oc1cccc2ccccc12)c1cccs1 [Duloxetine],percentage of variation of the paw withdrawal latency as compared to the vehicle-treated group,"[1]; 100 mg/kg p.o. on testing day, week 2, 60 minutes after treatment, p<0.01",+33%
same,increase in the paw withdrawal latency as compared to the pre-drug baseline of the corresponding group,"[1]; 100 mg/kg p.o. on testing day, week 3, 60 minutes after treatment, not significant",+50%
same,paw withdrawal latency (mean±s.e.m.),"[1]; 100 mg/kg p.o., week 3, 60 minutes after treatment, pre-drug baseline of the group 6.3±0.3 sec",9.4 ± 0.7 s
same,percentage of variation of the paw withdrawal latency as compared to the vehicle-treated group,"[2]; 100 mg/kg p.o., week 2, 60 minutes post-treatment",+42%
same,percentage of variation of the paw withdrawal latency as compared to the vehicle-treated group,"[2]; 100 mg/kg p.o., week 3, 60 minutes post-treatment",+74%
O=C1[O][Pt]2([NH][C@@H]3CCCC[C@H]3[NH]2)[O]C1=O [oxaliplatin],prevalence of CIPN in patients receiving oxaliplatin,[3]; after one month of chemotherapy,approximately 68%
same,prevalence of CIPN in patients receiving oxaliplatin,[3]; at six months or more,30%
same,prevalence of CIPN in patients receiving oxaliplatin,[3]; at three months,60%
same,patients who took oxaliplatin reporting long-lasting neuropathic symptoms,[3]; chronic neuropathic pain,Approximately 60%
"CC(C)C[C@](C)(N)COc1ccc(-c2ccnc(C(F)F)c2)nc1C(F)F [Compound A, ((S)-1-((2′,6-bis (difluoromethyl)-[2,4′-bipyridin]-5-yl)oxy)-2,4-dimethylpentan-2-aminiumdihydrogen phosphate]",increase in the paw withdrawal latency as compared to the vehicle-treated group,[1]; daily oral administrations at 3 mg/kg,did not show a statistically significant increase
same,percentage of variation of the paw withdrawal latency as compared to the vehicle-treated group,"[1]; daily p.o. 30 mg/kg then 10 mg/kg, week 2, baseline (before the day's dose), ns",+25%
same,paw withdrawal latency (mean±s.e.m.),"[1]; daily p.o. 30 mg/kg then 10 mg/kg, week 3, 60 minutes after the administration, vehicle 6.7±0.6 sec, p<0.05",10.2 ± 0.8 s
same,percentage of variation of the paw withdrawal latency as compared to the vehicle-treated group,"[1]; daily p.o. 30 mg/kg then 10 mg/kg, week 3, baseline (before the day's dose), p<0.05",+43%
same,increase in paw withdrawal latency as compared to the vehicle-treated group,"[2]; 10 mg/kg p.o., 60 minutes post-treatment",did not show a statistically significant increase
same,percentage of variation of the paw withdrawal latency as compared to the vehicle-treated group,"[2]; 30 mg/kg p.o., week 3, 60 minutes post-treatment",+35%
